Results as given in ChEMBL document CHEMBL1201862, “PubChem BioAssay data set” (2004).
The source made the active and inactive calls.

Key:
Assay type in all cases: functional
[1] = target: T1, DNA dC->dU-editing enzyme APOBEC-3G (Homo sapiens, UniProt Q9HC16); test: SAR analysis of small molecule inhibitors of APOBEC3G DNA Deaminase via a fluorescence-based single-stranded DNA deaminase assay - Set 2.; settings: read-out: IC50_Mean
[2] = target: T2, DNA dC->dU-editing enzyme APOBEC-3A (Homo sapiens, UniProt P31941); test: APOBEC3A DNA deaminase inhibitors, dose response, biochemical (AID 504722)
[3] = target: T3, Rac GTPase-activating protein 1 (Homo sapiens, UniProt Q9H0H5); test: MgcRacGAP GTPase-activating activity inhibitors, confirmation, biochemical, ADP Hunter fluorescence, primary and confirmatory (AID 624330)
T3 sequence (Q9H0H5 whole entry): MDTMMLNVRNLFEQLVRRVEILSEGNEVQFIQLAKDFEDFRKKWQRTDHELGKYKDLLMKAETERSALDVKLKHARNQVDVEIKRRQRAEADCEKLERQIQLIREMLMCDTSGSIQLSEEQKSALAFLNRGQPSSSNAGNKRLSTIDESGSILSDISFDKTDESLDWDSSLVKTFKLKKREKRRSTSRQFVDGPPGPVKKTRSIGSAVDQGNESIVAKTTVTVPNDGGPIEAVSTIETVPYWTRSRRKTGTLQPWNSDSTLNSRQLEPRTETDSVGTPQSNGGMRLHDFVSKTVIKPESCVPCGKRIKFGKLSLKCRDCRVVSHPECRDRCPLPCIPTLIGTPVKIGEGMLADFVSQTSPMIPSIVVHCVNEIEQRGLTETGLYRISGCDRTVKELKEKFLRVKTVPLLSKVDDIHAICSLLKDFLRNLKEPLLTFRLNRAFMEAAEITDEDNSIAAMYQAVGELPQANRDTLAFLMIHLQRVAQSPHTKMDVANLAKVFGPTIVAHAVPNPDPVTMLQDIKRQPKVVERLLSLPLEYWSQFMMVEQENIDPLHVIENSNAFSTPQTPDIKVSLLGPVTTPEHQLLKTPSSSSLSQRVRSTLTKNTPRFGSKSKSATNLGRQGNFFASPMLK

[4] = target: T2, DNA dC->dU-editing enzyme APOBEC-3A; test: SAR analysis of small molecule inhibitors of APOBEC3A DNA Deaminase via a fluorescence-based single-stranded DNA deaminase assay - Set 2.; settings: read-out: IC50_Mean
[5] = target: T1, DNA dC->dU-editing enzyme APOBEC-3G; test: Dose Response confirmation of small molecule APOBEC3G DNA Deaminase Inhibitors via a fluorescence-based single-stranded DNA deaminase assay. [Related pubchem assays (depositor defined):AID493012, AID493028]
[6] = target: Neuropeptides B/W receptor type 1 (Homo sapiens, UniProt P48145); test: GPR7 antagonist potency, late-stage follow-up, cell-based, fluorescence, dose response, set 5 (AID 588566)
[7] = target: Melanin-concentrating hormone receptor 1 (Homo sapiens, UniProt Q99705); test: Late-stage fluorescence-based counterscreen for antagonists of the G-protein coupled receptor 7 (GPR7): cell-based dose response assay to identify antagonists of the melanin-concentrating hormone receptor 1 (MCHR1) Set 5.
Melanin-concentrating hormone receptor 1, sequence (Q99705 whole entry): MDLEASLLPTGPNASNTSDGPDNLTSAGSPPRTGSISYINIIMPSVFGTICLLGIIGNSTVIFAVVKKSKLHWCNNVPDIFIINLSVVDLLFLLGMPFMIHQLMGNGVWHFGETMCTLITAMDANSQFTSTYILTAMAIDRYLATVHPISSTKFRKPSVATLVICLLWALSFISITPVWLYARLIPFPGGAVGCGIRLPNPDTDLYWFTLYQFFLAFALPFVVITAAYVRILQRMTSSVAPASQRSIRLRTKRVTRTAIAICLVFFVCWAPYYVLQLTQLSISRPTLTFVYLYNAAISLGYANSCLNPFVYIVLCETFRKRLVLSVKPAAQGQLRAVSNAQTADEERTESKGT

T2 sequence (P31941 whole entry): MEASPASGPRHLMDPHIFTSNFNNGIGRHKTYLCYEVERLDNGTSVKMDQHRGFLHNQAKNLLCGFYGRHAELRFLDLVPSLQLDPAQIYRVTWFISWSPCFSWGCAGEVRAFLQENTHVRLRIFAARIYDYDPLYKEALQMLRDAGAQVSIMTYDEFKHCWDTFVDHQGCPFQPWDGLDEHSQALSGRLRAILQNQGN
T1 sequence (Q9HC16 whole entry): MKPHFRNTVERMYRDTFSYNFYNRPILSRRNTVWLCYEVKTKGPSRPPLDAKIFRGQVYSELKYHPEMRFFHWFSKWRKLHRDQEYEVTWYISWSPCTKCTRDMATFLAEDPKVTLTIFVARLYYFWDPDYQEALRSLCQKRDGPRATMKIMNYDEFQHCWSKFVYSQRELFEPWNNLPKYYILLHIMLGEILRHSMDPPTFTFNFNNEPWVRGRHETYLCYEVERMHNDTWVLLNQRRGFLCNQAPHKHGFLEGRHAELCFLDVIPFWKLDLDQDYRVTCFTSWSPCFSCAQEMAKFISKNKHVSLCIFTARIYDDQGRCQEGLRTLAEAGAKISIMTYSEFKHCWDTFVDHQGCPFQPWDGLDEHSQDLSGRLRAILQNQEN
Neuropeptides B/W receptor type 1, sequence (P48145 whole entry): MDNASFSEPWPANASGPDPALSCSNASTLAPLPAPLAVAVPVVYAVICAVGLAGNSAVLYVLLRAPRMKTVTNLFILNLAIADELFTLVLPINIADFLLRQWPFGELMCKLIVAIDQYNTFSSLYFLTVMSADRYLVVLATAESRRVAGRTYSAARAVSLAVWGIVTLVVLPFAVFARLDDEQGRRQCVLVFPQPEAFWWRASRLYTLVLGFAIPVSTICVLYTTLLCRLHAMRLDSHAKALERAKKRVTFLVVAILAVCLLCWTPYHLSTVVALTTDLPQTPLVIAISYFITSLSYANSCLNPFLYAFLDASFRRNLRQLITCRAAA

Row | IC50 [6] | IC50 [7] | SMILES | IC50 [1] | IC50 [2] | IC50 [3] | IC50 [4] | IC50 [5]
1 |  |  | O=c1c2ccccc2n2c(=S)[nH]nc2n1-c1ccccc1 | 0.376 µM (active) | > 100 µM (inactive) | 25.8 µM (active) | > 99 µM (inactive) | 4.67 µM (active)
2 | 9.29 µM (active) | 7.88 µM (active) | CN(C)C(=O)c1ccc(Oc2c(Cl)cnn(Cc3cccc4ccccc34)c2=O)cc1 |  |  |  |  | 
